Laboratory results: patent US12071648B2, “Ex vivo model of inflamed human skin and uses thereof for screening anti-inflammatory compounds” (GENOSKIN, priority 2017, dated 2024)

Legend:
Type in all cases: cell-based, human
IL-17A = IL-17A secretion by the InflammaSkin ex vivo model of inflamed skin, ELISA of culture media
Description: (§1) Using a clamp, the skin biopsy is held flat, with the dermis on top. A needle with no dead volume is inserted into the biopsy from the side of the dermis using a 701N or 705N Hamilton syringe (for 8 mm or 15 mm diameter biopsies, respectively). 10 μL or 35 μL of the activation solution (50 ng/μL anti-CD3 antibody, 50 ng/μL anti-CD28 antibody, and 10 ng/mL IL-2) for biopsies of 8 or 15 mm diameter, respectively, are injected from the side of the biopsy to avoid damage to the epidermis.
(§2) In WILLIAM'S E synthetic culture medium, the following supplements are added: 10 ng/mL IL-1β, 50 ng/mL IL-23, and 10 ng/mL TGFbeta. The culture is carried out for 7 days in a CO2 incubator at 37° C. The culture medium containing the supplements is changed daily.
(§3) The cytokines IL-17A, IL-22, and IFNγ produced by the model were analyzed in the culture media by an ELISA assay using a specific detection kit from Meso Scale Discovery (U-PLEX TH17 Combo 2 Human Reference K15076K) and using a multiplex assay platform (MESO QuickPlex SQ 120).
(§4) In order to test the relevance of the model of inflamed skin obtained by the method of the invention, compounds known for their anti-inflammatory effect were tested. These are betamethasone di-propionate and the PDE4 inhibitor. […]

IL-22 [1] = test: IL-22 secretion by the InflammaSkin ex vivo model of inflamed skin, ELISA of culture media
Description: as §1, §2, §3, §4

IFNγ = IFNγ secretion by the InflammaSkin ex vivo model of inflamed skin, ELISA of culture media
Description: as §1, §2, §3, §4

TNFα = TNFα secretion by the InflammaSkin ex vivo model of inflamed skin
[2] = system: ex vivo model of inflamed skin (InflammaSkin); test: Histological analysis of the InflammaSkin model after topical treatment
Description: as §1, §2
The skin biopsy treated according to steps a) and b) of the method of the invention is dehydrated by an alcohol bath, and then passed through a xylene bath. A first bath in paraffin allows to replace the water previously contained in the skin explant by paraffin.
Serial sections of a thickness varying from 4 to 5 μm are then made along the entire length of the paraffin block containing the sample.
as §4

[3] = system: ex vivo model of inflamed skin (Hypo-InflammaSkin); test: Histology analysis (hematoxylin and eosin) of the Hypo-InflammaSkin model after subcutaneous injection
Description: In a second embodiment, the hypodermis is preserved. The biopsies (epidermis, dermis, and hypodermis), the thickness of which is about 1 cm, are then cut out using a metal punch. This second embodiment is for testing anti-inflammatory compounds by subcutaneous injection.
(§5) In order to test the relevance of the model of inflamed skin obtained by the method of the invention (Hypo-InflammaSkin®), an antibody known for its anti-inflammatory effect was tested. This is the adalimumab anti-TNFα antibody. Biopsies of inflamed skin (Hypo-InflammaSkin®−I) with a thickness of 1 cm were obtained by the method of the invention. A subcutaneous injection (namely into the […]) of 50 nM adalimumab was performed at TO (prophylactic treatment, Hypo-InflammaSkin®−I+anti-TNFα−P) or after 3 days of ex vivo culture of the inflamed biopsy (therapeutic treatment, Hypo-InflammaSkin®−I+anti-TNFα−T). After 7 days of ex vivo culture, the culture media are taken, and skin biopsies are fixed in a 10% formalin solution and then embedded in paraffin blocks. Serial sections of a constant thickness of 5 μm of the biopsies are made. The morphological appearance of the skin biopsies is studied under optical microscopy using hematoxylin and eosin staining. The presence of psoriasin (S110A7) is identified by fluorescence microscopy (Leica DM 5000 microscope) using an anti-S100A7 antibody coupled to a fluorochrome. […]

psoriasin (S100A7) = test: Psoriasin detection by fluorescence microscopy in the Hypo-InflammaSkin model; details: inflamed biopsy treated by subcutaneous injection of 50 nM, 7 days of ex vivo culture
Description: In order to test the relevance of the model of inflamed skin obtained by the method of the invention (Hypo-InflammaSkin®), an antibody known for its anti-inflammatory effect was tested. This is the adalimumab anti-TNFα antibody. Biopsies of inflamed skin (Hypo-InflammaSkin®−I) with a thickness of 1 cm were obtained by the method of the invention. A subcutaneous injection (namely into the […]) of 50 nM adalimumab was performed at TO (prophylactic treatment, Hypo-InflammaSkin®−I+anti-TNFα−P) or after 3 days of ex vivo culture of the inflamed biopsy (therapeutic treatment, Hypo-InflammaSkin®−I+anti-TNFα−T). After 7 days of ex vivo culture, the culture media are taken, and skin biopsies are fixed in a 10% formalin solution and then embedded in paraffin blocks. Serial sections of a constant thickness of 5 μm of the biopsies are made. The morphological appearance of the skin biopsies is studied under optical microscopy using hematoxylin and eosin staining. The presence of psoriasin (S110A7) is identified by fluorescence microscopy (Leica DM 5000 microscope) using an anti-S100A7 antibody coupled to a fluorochrome. The cell nuclei are marked with DAPI. Biopsies of non-inflamed skin (HypoSkin®−biopsies including the epidermis, dermis, and hypodermis) are used for control.

IL-22 [4] = test: IL-22 secretion by the Hypo-InflammaSkin model
Description: as §3, §5

Compound | IL-17A secretion (IL-17A; prophylactic treatment, topical 10 μL daily until 7th day of culture, compared to placebo control (FIG. 6A)) | IL-17A secretion (IL-17A; therapeutic treatment, topical from 3 days of culture, daily until 7th day (FIG. 6B)) | IL-22 secretion (IL-22 [1]; prophylactic treatment, topical 10 μL daily until 7th day of culture, compared to placebo control (FIG. 7A)) | IL-22 secretion (IL-22 [1]; therapeutic treatment, topical from 3 days of culture, daily until 7th day (FIG. 7B)) | IFNγ secretion (IFNγ; prophylactic treatment, topical 10 μL daily until 7th day of culture, compared to placebo control (FIG. 8A)) | IFNγ secretion (IFNγ; therapeutic treatment, topical from 3 days of culture, daily until 7th day (FIG. 8B)) | TNFα secretion (TNFα; prophylactic treatment, topical 10 μL daily until 7th day of culture, compared to placebo control (FIG. 9A)) | TNFα secretion (TNFα; therapeutic treatment, topical from 3 days of culture, daily until 7th day (FIG. 9B)) | histological abnormalities in the epidermis ([2]; after 7 days of culture (FIG. 5 legend)) | integrity and structure of the skin, particularly the epidermis, and viability of epidermal cells ([2]; prophylactic treatment, compared to placebo controls (FIG. 5)) | integrity and structure of the skin, more particularly the epidermis, and epidermal cell viability ([3]; prophylactic treatment, subcutaneous injection of 50 nM at T0, 7 days of ex vivo culture (FIG. 13)) | integrity and structure of the skin, more particularly the epidermis, and epidermal cell viability ([3]; therapeutic treatment, subcutaneous injection of 50 nM after 3 days of culture, 7 days of ex vivo culture (FIG. 13)) | presence of psoriasin (psoriasin (S100A7)) | IL-22 secretion (IL-22 [4]; prophylactic treatment, subcutaneous injection of 50 nM at T0, compared to untreated inflamed biopsy (FIG. 14)) | IL-22 secretion (IL-22 [4]; therapeutic treatment, subcutaneous injection of 50 nM after 3 days of culture, compared to untreated inflamed biopsy (FIG. 14))
CCC(=O)OCC(=O)[C@@]1(OC(=O)CC)[C@@H](C)C[C@H]2[C@@H]3CCC4=CC(=O)C=C[C@]4(C)[C@@]3(F)[C@@H](O)C[C@@]21C [betamethasone di-propionate] | strongly inhibited | inhibits IL-17A secretion | strongly inhibited | inhibits IL-22 secretion | strongly inhibited | inhibits IFNγ secretion | strongly inhibited | strongly inhibited | total absence of histological abnormalities in the epidermis | preserved |  |  |  |  | 
adalimumab |  |  |  |  |  |  |  |  |  |  | preserved | preserved | almost undetectable | strongly inhibited | strongly inhibited
